# Activity calls are given as the source filed them.
# Key:
# Troponin, cardiac muscle = Troponin, cardiac muscle (Homo sapiens, UniProt P19429+P45379+P63316); test: Fluorescence-based biochemical high throughput dose response assay for activators of the calcium sensitivity of cardiac Regulated Thin Filaments (RTF). [Related pubchem assays (depositor defined):AID493008, AID493018, AID504382, AID504383]; format: protein-complex assay
# Cysteine protease ATG4B = target: T1, Cysteine protease ATG4B (Homo sapiens, UniProt Q9Y4P1); format: functional;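 further: Fluorescence-based dose-response confirmation assay measuring inhibition of ATG4B activity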
# T1 sequence (Q9Y4P1 whole entry): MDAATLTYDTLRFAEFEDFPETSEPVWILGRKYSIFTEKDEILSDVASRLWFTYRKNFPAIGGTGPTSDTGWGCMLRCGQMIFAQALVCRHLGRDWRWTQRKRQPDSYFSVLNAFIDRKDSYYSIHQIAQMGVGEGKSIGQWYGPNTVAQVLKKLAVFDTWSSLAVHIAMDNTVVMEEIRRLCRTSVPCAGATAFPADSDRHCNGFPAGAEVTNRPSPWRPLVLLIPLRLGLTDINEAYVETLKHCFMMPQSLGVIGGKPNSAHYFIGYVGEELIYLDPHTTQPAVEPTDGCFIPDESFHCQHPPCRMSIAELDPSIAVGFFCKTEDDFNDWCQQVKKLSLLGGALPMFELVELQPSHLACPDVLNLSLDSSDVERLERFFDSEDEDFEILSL
# [1] = target: T2, Microphthalmia-associated transcription factor (Homo sapiens, UniProt O75030); test: reducers of TRPM1 reporter luminescence, concentration series – cell-based, SK-MEL-5, cherry-picked, set 3, MITF inhibitor project, dose response (AID 493073); format: functional;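 further: SK-MEL-5 melanoma cells with luciferase driven by the MITF target TRPM1 promoter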
# T2 sequence (O75030 whole entry): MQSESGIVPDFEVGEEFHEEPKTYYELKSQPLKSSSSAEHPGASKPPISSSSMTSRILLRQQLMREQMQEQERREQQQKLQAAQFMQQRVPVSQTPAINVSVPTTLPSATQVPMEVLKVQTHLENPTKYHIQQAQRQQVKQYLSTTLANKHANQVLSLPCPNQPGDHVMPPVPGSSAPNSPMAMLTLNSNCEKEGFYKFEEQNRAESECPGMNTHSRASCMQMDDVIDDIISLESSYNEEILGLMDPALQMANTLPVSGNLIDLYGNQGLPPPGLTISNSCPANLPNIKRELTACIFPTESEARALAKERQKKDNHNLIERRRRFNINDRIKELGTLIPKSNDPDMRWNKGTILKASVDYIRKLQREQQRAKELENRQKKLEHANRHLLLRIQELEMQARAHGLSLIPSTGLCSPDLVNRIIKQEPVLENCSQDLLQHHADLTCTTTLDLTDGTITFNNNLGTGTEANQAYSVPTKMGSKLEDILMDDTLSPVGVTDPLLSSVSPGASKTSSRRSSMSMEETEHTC
# Phospholipase A2 = Phospholipase A2 (Homo sapiens, UniProt P04054); format: functional;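 further: confirmatory dose-response counterscreen on phospholipase A2, testing hits that came from an ultra-high-throughput screen for ATG4B inhibitors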
# A-375 [2] = test: MITF: Counter assay: A375 proliferation Measured in Cell-Based System Using Plate Reader - 2084-03_Inhibitor_Dose_DryPowder_Activity. [Related pubchem assays (depositor defined):AID488944]; format: functional; details: Homo sapiens
# A-375 [3] = test: proliferation inhibition in MITF-low A375 cells – cell-based, cherry-pick samples, set 2, counter-screen for MITF modulator project, dose response (AID 540335); format: functional; details: Homo sapiens
# [4] = target: E3 ubiquitin-protein ligase Mdm2 (Homo sapiens, UniProt Q00987); test: MDM2-luc reporter signal enhancers, multi-concentration potency testing, MDM2 ubiquitin-protein ligase inhibitor program, whole-cell format, luminescence detection, 384-well microplate (AID 1394); format: functional;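 further: MDM2 E3 inhibitors raise luminescence so EC50 is for signal enhancement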
# [5] = target: Luciferin 4-monooxygenase (Photinus pyralis, UniProt P08659); test: Counter Screen for Luciferase-based Assay Positives. [Related pubchem assays: 620, 618, 411 ]
# [6] = viability of PTEN-deleted HCT116 cells – cell-based, HCT116 PTEN knockout, dose response (AID 1047); format: functional;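 further: HCT116 colon tumor cells with PTEN knocked out; cells exposed to compound for 60 hours before readout; potency for loss of cell viability measured by luminescence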
# HT-1080 = test: HT1080 cell viability loss – fluorescence readout (AID 620); format: functional, cell-based; details: Homo sapiens
# [7] = viability of HCT116 lacking mutant beta-catenin – cell-based, human colon tumor, dose response (AID 1045); format: functional;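 further: HCT116 colon tumor cells with beta catenin knocked out; cells exposed to compound for 60 hours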
# [8] = target: C-C chemokine receptor type 6 (Homo sapiens, UniProt P51684); test: antagonism of CCR6 beta-arrestin recruitment – cell-based, luminescent beta-arrestin readout, dose response (AID 504728); format: functional
# Beta-galactosidase = Beta-galactosidase (Escherichia coli, UniProt Q8VNN2); test: detection-enzyme interference by beta-gal modulators – biochemical, E. coli enzyme, set 3, artefact control for CCR6 antagonist project, dose response (AID 504712); format: functional
# [9] = target: Eukaryotic translation initiation factor 4E (Mus musculus, UniProt P63073); test: blockers of eIF4G binding by eIF4E – biochemical, TR-FRET, dose response (AID 855); format: functional;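 further: potency for disrupting eIF4E binding to eIF4GI seen as loss of FRET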
# Nonstructural protein 1 = Nonstructural protein 1 (Influenza A virus, UniProt Q194T2); format: functional, Influenza A virus (A/California/07/2009(H1N1))
# Hexokinase HKDC1 = target: T3, Hexokinase HKDC1 (Homo sapiens, UniProt Q2TB90); test: inhibition of HKDC1 glucose phosphorylation – biochemical, W721R variant, dose response (AID 504729); format: functional
# T3 sequence (Q2TB90 whole entry): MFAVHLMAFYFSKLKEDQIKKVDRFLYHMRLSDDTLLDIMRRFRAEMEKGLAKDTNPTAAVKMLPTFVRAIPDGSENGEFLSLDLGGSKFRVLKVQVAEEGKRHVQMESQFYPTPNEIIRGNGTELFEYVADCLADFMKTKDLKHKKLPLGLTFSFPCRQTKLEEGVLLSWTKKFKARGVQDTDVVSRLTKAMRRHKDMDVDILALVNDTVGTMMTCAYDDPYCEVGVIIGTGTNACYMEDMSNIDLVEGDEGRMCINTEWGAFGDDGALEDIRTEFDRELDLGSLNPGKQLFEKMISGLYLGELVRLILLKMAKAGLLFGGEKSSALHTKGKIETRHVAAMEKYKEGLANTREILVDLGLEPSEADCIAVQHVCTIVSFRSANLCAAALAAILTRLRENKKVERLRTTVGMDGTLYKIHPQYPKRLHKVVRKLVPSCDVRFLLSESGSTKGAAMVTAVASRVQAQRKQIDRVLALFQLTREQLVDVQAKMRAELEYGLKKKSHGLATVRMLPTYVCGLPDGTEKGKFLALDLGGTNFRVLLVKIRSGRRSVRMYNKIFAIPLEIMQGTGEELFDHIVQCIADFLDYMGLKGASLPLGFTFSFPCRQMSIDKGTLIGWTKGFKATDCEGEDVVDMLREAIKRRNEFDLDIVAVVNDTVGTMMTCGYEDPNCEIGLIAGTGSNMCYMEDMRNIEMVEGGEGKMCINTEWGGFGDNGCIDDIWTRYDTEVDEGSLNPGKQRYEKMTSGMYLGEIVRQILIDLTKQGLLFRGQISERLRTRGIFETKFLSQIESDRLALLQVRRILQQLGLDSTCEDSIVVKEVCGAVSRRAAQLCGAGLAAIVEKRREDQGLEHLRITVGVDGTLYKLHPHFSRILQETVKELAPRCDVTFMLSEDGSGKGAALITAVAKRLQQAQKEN
# [10] = target: T4, Replicative DNA helicase DnaB (Mycobacterium tuberculosis, UniProt P9WMR3); test: DnaB intein splicing inhibitors, dose response, biochemical, cell-free fluorescence (AID 449749); format: functional
# T4 sequence (P9WMR3 whole entry): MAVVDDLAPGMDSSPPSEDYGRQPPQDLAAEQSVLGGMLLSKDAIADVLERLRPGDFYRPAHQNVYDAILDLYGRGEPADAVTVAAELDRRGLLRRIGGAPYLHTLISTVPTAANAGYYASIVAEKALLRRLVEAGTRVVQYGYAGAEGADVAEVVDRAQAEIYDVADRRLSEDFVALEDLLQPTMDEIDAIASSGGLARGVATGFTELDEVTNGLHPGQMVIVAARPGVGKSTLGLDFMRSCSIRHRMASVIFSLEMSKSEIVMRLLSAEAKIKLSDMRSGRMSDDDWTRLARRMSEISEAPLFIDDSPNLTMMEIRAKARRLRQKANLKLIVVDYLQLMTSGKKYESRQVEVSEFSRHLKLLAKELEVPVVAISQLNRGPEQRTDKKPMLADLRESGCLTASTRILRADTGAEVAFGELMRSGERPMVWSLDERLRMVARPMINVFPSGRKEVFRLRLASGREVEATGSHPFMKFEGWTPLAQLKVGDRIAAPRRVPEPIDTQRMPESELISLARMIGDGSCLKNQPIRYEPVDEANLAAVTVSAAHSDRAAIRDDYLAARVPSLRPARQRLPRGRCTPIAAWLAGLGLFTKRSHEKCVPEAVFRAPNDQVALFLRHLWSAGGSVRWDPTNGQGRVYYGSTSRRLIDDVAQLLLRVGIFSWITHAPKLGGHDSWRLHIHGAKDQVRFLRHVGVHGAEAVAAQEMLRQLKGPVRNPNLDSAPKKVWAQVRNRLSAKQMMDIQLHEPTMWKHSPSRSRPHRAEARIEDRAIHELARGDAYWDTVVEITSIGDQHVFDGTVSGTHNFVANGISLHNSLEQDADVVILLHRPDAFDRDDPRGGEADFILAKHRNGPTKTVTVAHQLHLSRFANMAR
# Protein RecA = target: T5, Protein RecA (Mycobacterium tuberculosis, UniProt P9WHJ3); test: Fluorescence Cell-Free Homogeneous Dose Retest to Identify Inhibitors of RecA-Intein Splicing Activity. [Related pubchem assays (depositor defined):AID2097, AID2223, AID489010, AID492950]; format: functional
# T5 sequence (P9WHJ3 whole entry): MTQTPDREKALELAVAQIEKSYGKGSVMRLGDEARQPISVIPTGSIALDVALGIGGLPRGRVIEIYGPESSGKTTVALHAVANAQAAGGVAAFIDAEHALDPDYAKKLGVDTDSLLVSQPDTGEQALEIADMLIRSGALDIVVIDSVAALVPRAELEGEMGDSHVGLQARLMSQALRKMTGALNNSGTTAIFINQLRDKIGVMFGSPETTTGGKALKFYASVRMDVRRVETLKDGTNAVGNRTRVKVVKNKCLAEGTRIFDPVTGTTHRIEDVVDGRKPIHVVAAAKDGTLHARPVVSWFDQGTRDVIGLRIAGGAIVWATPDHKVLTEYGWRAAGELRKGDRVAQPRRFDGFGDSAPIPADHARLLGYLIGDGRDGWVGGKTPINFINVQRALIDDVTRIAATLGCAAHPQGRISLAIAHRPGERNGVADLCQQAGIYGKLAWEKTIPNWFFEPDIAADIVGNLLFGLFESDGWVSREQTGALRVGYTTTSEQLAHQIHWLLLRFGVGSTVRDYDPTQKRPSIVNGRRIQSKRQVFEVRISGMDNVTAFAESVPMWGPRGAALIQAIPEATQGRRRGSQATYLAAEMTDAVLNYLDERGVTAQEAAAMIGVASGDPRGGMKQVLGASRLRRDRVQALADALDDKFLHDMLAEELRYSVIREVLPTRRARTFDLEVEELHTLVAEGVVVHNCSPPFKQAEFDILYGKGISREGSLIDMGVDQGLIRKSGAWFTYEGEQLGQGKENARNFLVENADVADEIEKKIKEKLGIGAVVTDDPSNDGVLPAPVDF
# Beta-arrestin-1 = Beta-arrestin-1 (Homo sapiens, UniProt P49407); test: beta-arrestin/AP2 interaction blockers, potency – biochemical, cherry pick 1, beta2-adaptin appendage, flow cytometry, dose response (AID 588783); format: functional
# Protein Tat = target: T6, Protein Tat (Human immunodeficiency virus type 1 group M subtype B (isolate HXB2)(HIV-1), UniProt P04608); format: functional;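 further: tat binding to TAR RNA read out by fluorescence polarization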
# T6 sequence (P04608 whole entry): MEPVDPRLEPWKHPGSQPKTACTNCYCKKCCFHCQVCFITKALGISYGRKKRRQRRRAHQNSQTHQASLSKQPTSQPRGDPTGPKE
# DNA topoisomerase = DNA topoisomerase (Yersinia pestis, UniProt A0A2S9PM60); test: Yersinia topoisomerase I cleavage product accumulation – biochemical, cherry-pick, dose response (AID 588525)
# [11] = target: T7, Probable nicotinate-nucleotide adenylyltransferase (Staphylococcus aureus (strain N315), UniProt P65502); format: functional, Staphylococcus aureus subsp. aureus N315;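 on IC50 Mean: confirmatory dose-response retesting of NadD inhibitor hits first found in an ultra-high-throughput screen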
# [12] = target: T7, Probable nicotinate-nucleotide adenylyltransferase; format: functional, Staphylococcus aureus subsp. aureus N315; details: read-out: IC50_Mean
# HeLa = test: ATP-based viability loss in HeLa cells – cell-based, CellTiter-Glo luminescence, cherry-pick samples, cytotoxicity control for MITF activator project, dose response (AID 540259); format: functional; details: Homo sapiens
structure (smiles),measurement,setting,value
Cc1cc(C=C2C(=O)c3ccccc3C2=O)c(C)n1-c1ccccc1,EC50,"Troponin, cardiac muscle",> 7.94 µM (active)
same,IC50,Cysteine protease ATG4B,11 µM (active)
same,AC50,[1],3.78 µM (active)
same,IC50,Phospholipase A2,6.96 µM (active)
same,AC50,A-375 [2],> 11 µM (active)
same,AC50,A-375 [3],> 11 µM (active)
O=C1C(Cl)=C(N2CCCCC2)C(=O)C(Cl)=C1c1cnc(N2CCCCC2)s1,EC50,[4],2.42 µM (active)
same,EC50,[5],4.4 µM (active)
same,EC50,[6],3.45 µM (active)
same,EC50,HT-1080,45.9 µM (active)
same,EC50,[7],2.75 µM (active)
same,IC50,[8],> 66.6 µM (inactive)
same,IC50,Beta-galactosidase,> 66.6 µM (inactive)
same,IC50,[9],> 64 µM (inactive)
same,IC50,Nonstructural protein 1,21.4 µM (active)
same,IC50,Hexokinase HKDC1,11.4 µM (active)
same,AC50,[10],> 380 µM (inactive)
same,EC50,Protein RecA,766 nM (active)
same,IC50,Beta-arrestin-1,14.1 µM (active)
same,IC50,Protein Tat,1.99 µM (inconclusive)
O=C(Nc1ccn(CCCN(CCCn2ccc(NC(=O)OCc3ccccc3)nc2=O)CCc2cc3ccccc3[nH]2)c(=O)n1)OCc1ccccc1,AC50,DNA topoisomerase,2.54 µM (active)
same,IC50,[11],15.9 µM (active)
same,IC50,[12],40.7 µM (active)
Cc1ccn2c(C(=O)c3ccc(Cl)cc3)cnc2c1,AC50,HeLa,37 µM (active)
